Legend:
Type in all cases: cell-based
[1] = system: FOXP3; assay: FOXP3 expression in human Treg / CD4+ T cells treated with SMAD3 inhibitors; conditions: for FOXP3 mRNA expression: purified human Treg cells
Excerpt: p-SMAD3 […]/425 is recognized for its involvement in TGFβ signaling. […] Given the essential role of SMAD3 phosphorylation in nuclear localization and transcriptional activity controlling other genes, the phosphorylation status and its association with IL-37 in human Treg cells was examined (FIG. 24A). Inhibitors of […]/425 sites (SIS3) and […]/[…] sites (flavopiridol) were utilized to determine if they could decrease FOXP3 mRNA expression and disrupt the SMAD3/IL-37 interaction. […] These findings also point to a crucial interplay between p-SMAD3 […] and IL-37 in orchestrating the transcriptional regulation of FOXP3 in human Treg cells.

[2] = system: p-SMAD3 S208; assay: Immunoblotting of cytoplasmic and nuclear proteins of human Treg cells after flavopiridol; conditions: immunoblot
Method: For immunoblot analysis, cells were lysed in RIPA buffer (50 mM Tris-HCL pH 7.4, 150 mM NaCl, 1 mM PMSF, 1 mM EDTA, 5 μg/ml Aprotinin, […] Leupeptin, 1% Triton x-100, 1% Sodium deoxycholate, 0.1% SDS) (Sigma-Aldrich). For IP of Smad3, cells were lysed in Pierce® IP Lysis Buffer (Thermo) and prepared using the Thermo Immunoprecipitation containing Dynabeads™ Protein G kit according to the manufacturer's instructions. The Smad3 IP was performed using the rabbit monoclonal antibody against Smad3 (C67H9) (Thermo). Hsp90 IP using mouse monoclonal antibody against Hsp90 (610418) (BD Biosciences). 20 μg of sample was run on a 4-15% Mini-Protean TGX precast gel (Bio-Rad) and then transferred overnight at 4° C. and 30 V to a PVDF membrane using a Bio-Rad Trans-Blot® transfer cell. Following 1 h of blocking with blocking buffer (5% milk/Tween 20 in TBS), membranes were incubated with primary antibody overnight at 4° C. For siRNA knockdown blots, mouse β-actin monoclonal antibody (Sigma-Aldrich) at a dilution of 1:10,000 was used for the loading control. For Smad3 IP, rabbit anti-human IL-37 (IL-1F7) polyclonal antibody (Invitrogen, Thermo) at a dilution of 1:1000 was used to detect IL37. HRP-conjugated anti-rabbit (1:5000) and anti-mouse IgG (1:5000) were purchased from Sigma-Aldrich. The SuperSignal West Pico Kit (Thermo Fisher) was used according to the manufacturer's instructions for the chemiluminescent detection of the proteins. Protein expression was further analyzed by measuring the relative densities using FIJI (National Institutes of Health: http://rsb.info.nih.gov/ij/) or LI-COR Image Studio™ Software.
Therefore, cytoplasmic and nuclear proteins of primary human Treg cells was scrutinized following flavopiridol treatment to ascertain if p-SMAD3 S208 is essential for the nuclear localization of SMAD3 and IL-37.

[3] = system: caspase-1; assay: Caspase-1 inhibition in human Treg / CD4+ T cells; conditions: 50 μM
Method: For proximity ligation assay (PLA) experiments, after primary antibodies were washed out, cells were incubated for 1 h at 37° C. with an anti-rabbit PLUS probe (1:5 dilution; Duo92002; Sigma-Aldrich) anti-mouse MINUS probe (1:5 dilution; Duo92004; Sigma-Aldrich) and were washed two times with wash buffer A. Probes were then ligated for 30 min at 37° C. and washed two times in Buffer A and were amplified for 100 min at 37° C. in the dark with polymerase (Sigma-Aldrich). For flow-based PLA (Sigma-Aldrich), after amplification, cells were treated with 1× green detection buffer for 30 min at 37° C., then washed 2× with PLA wash buffer and prepared for flow analysis. After 2 washes with 1× Buffer B (Thermo Fisher), each well was added with ProLong™ Gold antifade reagent (Thermo Fisher) containing DAPI nuclear stain. Images were obtained with an Olympus FV1000 FCS/RICS system (Olympus, Tokyo, Japan). For analysis, 7 different 100×/1.4 Oil Plan-Apochromatic objective fields of view were imaged per well per experiment. Each field was measured for IL-37 fluorescence intensity using the FIJI measurement application. To analyze the cytoplasmic vs. nuclear localization of IL-37 within the T cells, DAPI and IL-37 overlapped images was used. Along with single-slice full field images, […] slice z-stack images were taken to confirm cytoplasmic vs. nuclear localization of IL-37. Colocalization of IL-37 and DAPI was assessed by Pearson's correlation coefficient using FIJI. Line intensity profiles were created using a Plot profile in FIJI to measure differences in fluorescence across a cell by drawing a line spanning the diameter of the cell, and then the staining intensity measurements across the line were then entered into Prism 8 (GraphPad, Lo Jolla, CA). 3D fluorescent maps were created using a Surface plot in FIJI.
Purified lymphocytes from either humans or mice were washed with FACS buffer (5% BSA (Sigma-Aldrich) and 1×PBS), and then prepared for surface or intracellular staining, as described (Osborne and Wetzel, 2012). For surface staining, 1 μg or the manufacturer-recommended amounts of fluorescently conjugated antibody specific to the surface marker to be visualized was added to 1×10^6 cells resuspended in 100 μl of FACS buffer for 30 min at 4° C., then washed 2× with FACS buffer prior to being either analyzed or further processed. […] For measuring proliferation, cells were stained with 5-μM CFSE (Molecular Probes, Eugene, OR) prior to cell culture and analyzed using flow cytometry. […]

[4] = system: FOXP3; assay: siRNA knockdown in primary human T cells, FOXP3 and marker expression; conditions: siRNA 48 h prior
Method: Purified primary human CD4+ T cells were used for siRNA knockdown of RUNX1, RPTOR, IL37, CREB1, CHK1, NLRP2, NLRP3, NLRP4, ASC, and NLRC4, and CD4+CD25+CD127^dim T cells for siRNA knockdown of FOXP3 and IL37. Cells were purified from healthy donor PBMCs as described above and then placed in culture in complete RPMI 1640 for at least 2 h prior to siRNA transfection via nucleofection using the Amaxa P3 Primary Cell 4D-Nucleofector X Kit L (Lonza) following the manufacturer's instructions. For the knockdown of RPTOR and IL-37, three different siRNAs (30 nM) against RPTOR and IL-37: A, B, and C (OriGene, Rockville, MD) were used separately or pooled, whereas for FOXP3 knockdown, only the pool of three different siRNAs (30 nM) against FOXP3: A, B, and C (OriGene) was used due to a limited number CD4+CD25+CD127^dim T cells. For the knockdown of NLRP3A, three to four siRNAs were pooled together, and for NLRC4 and NLRP4, Dharmacon SMARTpool was used. Single-sense and anti-sense siRNAs were used for NLRP2 and ASC (Ambion). Scrambled siRNA (OriGene, Ambion, and Dharmacon) was used as a control. Knockdowns were confirmed 24 hours after nucleofection by qRT-PCR or 48 hours later by western blot, and the relative density of the protein bands was determined using FIJI. […]

[5] = system: human Treg cells; assay: CD25+FOXP3+ frequency in human Treg cells cultured with IL-6; conditions: anti-TCR/CD28, IL-6 20 ng/ml
Method: Purified lymphocytes from either humans or mice were washed with FACS buffer (5% BSA (Sigma-Aldrich) and 1×PBS), and then prepared for surface or intracellular staining, as described (Osborne and Wetzel, 2012). For surface staining, 1 μg or the manufacturer-recommended amounts of fluorescently conjugated antibody specific to the surface marker to be visualized was added to 1×10^6 cells resuspended in 100 μl of FACS buffer for 30 min at 4° C., then washed 2× with FACS buffer prior to being either analyzed or further processed. For intracellular cytokine staining (ICS), the FOXP3 Cytoperm/Cytofix staining kit (BD Pharmingen, San Diego, CA) was used after cells were stimulated for 24 h on 1 μg/ml anti-CD3-coated plates with soluble 1 μg/ml anti-CD28 antibody or anti-CD3/CD28 conjugated Dynabeads™ (Gibco, Thermo Fisher). For measuring proliferation, cells were stained with 5-μM CFSE (Molecular Probes, Eugene, OR) prior to cell culture and analyzed using flow cytometry. Flow-based measurement of caspase-1 activation was done using the FAM-FLICA® Caspase-1 Assay kit #98 following the manufacturer's instructions (ImmunoChemistry Tech, Bloomington, MN). […] All acquisitions were performed on a Galios® or Galios® 561 cytometer equipped with Kaluza software (Beckman-Coulter, Indianapolis, IN), and all data were analyzed with FlowJo_V10 software (Tree Star, Ashland, OR).

Question: Which results are given for `COc1cc2c(cc1OC)CN(C(=O)/C=C/c1c(-c3ccccc3)n(C)c3ncccc13)CC2` [SIS3]?
Answer: FOXP3 protein expression ([1]; primary human CD4+ T cells): did not significantly decrease; FOXP3 mRNA expression [1]: did not significantly alter

Question: Which results are given for `CN1CC[C@H](c2c(O)cc(O)c3c(=O)cc(-c4ccccc4Cl)oc23)[C@H](O)C1` [flavopiridol]?
Answer: FOXP3 protein expression, fold decrease compared to control cells ([1]; primary human CD4+ T cells, not rescued by TGF-β): ~2 fold; FOXP3 mRNA expression [1]: almost completely obliterated; expression of IL-37 in the nucleus [2]: abolished; nuclear SMAD3 levels [2]: lowered; nuclear levels of FOXP3 [2]: reduced; p-SMAD3 S208 [2]: diminished

Question: With Ac-YVAD-CMK as the compound, how does the “FOXP3 mRNA and protein expression” value ([3]; human CD4+ T cells) read?
Answer: reduction

Question: What about the “decrease of interaction between IL-37 and p-SMAD3 S208” value ([3]; human Treg cells) of the same compound?
Answer: 36.5%

Question: And the IL-37 subcellular localization ([3]; human Treg cells, 24 h)?
Answer: shift of IL-37 localization from the nucleus to the perinuclear region of the cytoplasm

Question: What about the IL-37 expression ([3]; human Treg cells, 48 h) of the same compound?
Answer: without alteration

Question: For “CREB1: siRNA against CREB1 (Ambion), SEQ ID NO: 8-9 (chain 1 CCGUAACUCUAGUACAGCU; chain 2 AGCUGUACUAGAGUUACGG; listed as RNA, chemistry not given here)”, which “frequency of FOXP3+ T cells in CD4+ T cells after knockdown” value [4] is on record?
Answer: significant decline

Question: How did the “decrease in frequency of CD25+FOXP3+ cells” value ([5]; gated IL37hi human Treg cells) turn out when “IL-6: IL-6 (Peprotech), 20 ng/ml, added as inflammatory stimulus to Treg cultures” was run?
Answer: no such reduction

Question: And the “decrease in frequency of CD25+FOXP3+ cells” value ([5]; gated IL-37lo human Treg cells)?
Answer: 34%

Question: “RUNX1: siRNA against RUNX1 (Ambion), SEQ ID NO: 34-35 (chain 1 AGAACCAGGUUGCAAGAUU; chain 2 AAUCUUGCAACCUGGUUCU; listed as RNA, chemistry not given here)” was tested. Which “frequency of FOXP3+ T cells in CD4+ T cells after knockdown” value [4] did it give?
Answer: significant decline
